# Results from patent US12208071B2, “Glucagon receptor antagonists” (LIGAND PHARMACEUTICALS INCORPORATED, priority 2018, dated 2025).
# Columns and labels:
# [1] = Intrinsic dissolution rate (IDR); format: physicochemical; conditions: for Detection in dissolution medium (IDR test): total 120 min
# Procedure: Testing media: water, 0.1N HCl, pH 6.8 USP buffer
# About 200 mg Polymorph Form A was weighed into the intrinsic dissolution apparatus (diameter: 0.795 cm) and compressed for 1 minute with 1 ton compression force to make the material compact. The intrinsic dissolution apparatus was slid into the dissolution test chuck and tightened. The shaft in the spindle was adjusted to ensure the exposed surface of the compacted tablet was 3.8 cm from the bottom of the vessel when lowered. The temperature of chamber water was set at 37° C., the shaft rotation at 100 rpm, and the sampling time points at 2, 5, 10, 15, 20, 30, 45, 60, 90 and 120 min. 5 mL of solution was sampled at each time point, and the samples filtered with 0.45 μm filter. The concentration of the filtrates was analyzed by HPLC.
# [2] = Long-term stability (ICH), 25° C./60% RH; format: physicochemical
# Procedure: Polymorph Form A was manufactured under Good Manufacturing Practices (GMP)-compliant conditions at a scale of 1.26 kg. The container closure for the batch consisted of double-lined low density polyethylene bags placed inside fiberboard drums, and the batch was on ICH stability under storage conditions of 25° C./60% relative humidity (RH) and 40° C./75% RH. Long-term stability data through the 36-month interval and accelerated stability data through the 6-month interval are shown in Tables 2 and 3.
# Stability samples were tested according to the protocol (Table 5) and to the same specification as the drug substance. The available stability data for samples stored at 25° C./60% RH and 40° C./75% RH are summarized.
smiles,measurement,setting,value
"Cc1cc(C)c(-c2ccc(NC(=O)[C@H](Cc3ccc(C(=O)NCCS(=O)(=O)[O-])cc3)c3ccc(-c4ccc(C(C)(C)C)cc4)cc3)cc2)c(C)c1.[Na+] [Polymorph Form A, Sodium (R)-2-(4-(2-(4′-(tert-butyl)-[1,1′-biphenyl]-4-yl)-3-oxo-3-((2′,4′,6′-trimethyl-[1,1′-biphenyl]-4-yl)amino)propyl)benzamido)ethane-1-sulfonate]",Detection in dissolution medium (IDR test),[1]; 0.1N HCl,could not be detected
same,Intrinsic dissolution rate (mg/cm^2/min),"[1]; Water, 37° C., 100 rpm, from data of 10, 15 and 20 min",0.9681 mg/cm^2/min
same,Detection in dissolution medium (IDR test),[1]; pH 6.8 USP buffer,could not be detected
same,Concentration in dissolution medium (IDR test),"[1]; water, within 5 min, not detected, LOQ",< 305.1 ng/mL
same,Appearance,"[2]; 25° C./60% RH, 0 months",White
same,Assay (anhydrous w/w %),"[2]; 25° C./60% RH, 0 months",101.3 w/w %
same,Chiral purity (area %),"[2]; 25° C./60% RH, 0 months",99.9 area %
same,"Individual related substance (area %, w/w), RRT 0.46","[2]; 25° C./60% RH, 0 months","0.08 area %, w/w"
same,"Individual related substance (area %, w/w), RRT 0.64","[2]; 25° C./60% RH, 0 months","0.12 area %, w/w"
same,"Individual related substance (area %, w/w), RRT 1.20","[2]; 25° C./60% RH, 0 months","0.05 area %, w/w"
same,Purity (% area),"[2]; 25° C./60% RH, 0 months",99.8 % area
same,Total related substances,"[2]; 25° C./60% RH, 0 months",0.25%
same,Water content (%),"[2]; 25° C./60% RH, 0 months",2.1%
same,Appearance,"[2]; 25° C./60% RH, 3 months",White
same,Assay (anhydrous w/w %),"[2]; 25° C./60% RH, 3 months",102.5 w/w %
same,Chiral purity (area %),"[2]; 25° C./60% RH, 3 months",99.8 area %
same,"Individual related substance (area %, w/w), RRT 0.46","[2]; 25° C./60% RH, 3 months","0.08 area %, w/w"
same,"Individual related substance (area %, w/w), RRT 0.64","[2]; 25° C./60% RH, 3 months","0.12 area %, w/w"
same,"Individual related substance (area %, w/w), RRT 1.20","[2]; 25° C./60% RH, 3 months","0.05 area %, w/w"
same,Purity (% area),"[2]; 25° C./60% RH, 3 months",99.8 % area
same,Total related substances,"[2]; 25° C./60% RH, 3 months",0.25%
same,Water content (%),"[2]; 25° C./60% RH, 3 months",6.1%
same,Appearance,"[2]; 25° C./60% RH, 6 months",White
same,Assay (anhydrous w/w %),"[2]; 25° C./60% RH, 6 months",101.1 w/w %
same,Chiral purity (area %),"[2]; 25° C./60% RH, 6 months",99.8 area %
same,"Individual related substance (area %, w/w), RRT 0.46","[2]; 25° C./60% RH, 6 months","0.08 area %, w/w"
same,"Individual related substance (area %, w/w), RRT 0.64","[2]; 25° C./60% RH, 6 months","0.11 area %, w/w"
same,"Individual related substance (area %, w/w), RRT 1.20","[2]; 25° C./60% RH, 6 months","0.05 area %, w/w"
same,Purity (% area),"[2]; 25° C./60% RH, 6 months",99.8 % area
same,Total related substances,"[2]; 25° C./60% RH, 6 months",0.24%
same,Water content (%),"[2]; 25° C./60% RH, 6 months",6.5%
same,XRPD,"[2]; 25° C./60% RH, 6 months",Same
same,Appearance,"[2]; 25° C./60% RH, 9 months",White
same,Assay (anhydrous w/w %),"[2]; 25° C./60% RH, 9 months",101.1 w/w %
same,Chiral purity (area %),"[2]; 25° C./60% RH, 9 months",99.6 area %
same,"Individual related substance (area %, w/w), RRT 0.46","[2]; 25° C./60% RH, 9 months","0.08 area %, w/w"
same,"Individual related substance (area %, w/w), RRT 0.64","[2]; 25° C./60% RH, 9 months","0.12 area %, w/w"
same,"Individual related substance (area %, w/w), RRT 1.20","[2]; 25° C./60% RH, 9 months","0.05 area %, w/w"
same,Purity (% area),"[2]; 25° C./60% RH, 9 months",99.8 % area
same,Total related substances,"[2]; 25° C./60% RH, 9 months",0.25%
same,Water content (%),"[2]; 25° C./60% RH, 9 months",6.7%
same,Appearance,"[2]; 25° C./60% RH, 12 months",White
same,Assay (anhydrous w/w %),"[2]; 25° C./60% RH, 12 months",101.0 w/w %
same,Chiral purity (area %),"[2]; 25° C./60% RH, 12 months",99.4 area %
same,"Individual related substance (area %, w/w), RRT 0.46","[2]; 25° C./60% RH, 12 months","0.08 area %, w/w"
same,"Individual related substance (area %, w/w), RRT 0.64","[2]; 25° C./60% RH, 12 months","0.11 area %, w/w"
same,"Individual related substance (area %, w/w), RRT 1.20","[2]; 25° C./60% RH, 12 months","0.05 area %, w/w"
same,Purity (% area),"[2]; 25° C./60% RH, 12 months",99.8 % area
same,Total related substances,"[2]; 25° C./60% RH, 12 months",0.24%
same,Water content (%),"[2]; 25° C./60% RH, 12 months",7.0%
same,XRPD,"[2]; 25° C./60% RH, 12 months",Same
same,Appearance,"[2]; 25° C./60% RH, 18 months",White
same,Assay (anhydrous w/w %),"[2]; 25° C./60% RH, 18 months",100.9 w/w %
same,Chiral purity (area %),"[2]; 25° C./60% RH, 18 months",99.5 area %
same,"Individual related substance (area %, w/w), RRT 0.46","[2]; 25° C./60% RH, 18 months","0.08 area %, w/w"
same,"Individual related substance (area %, w/w), RRT 0.64","[2]; 25° C./60% RH, 18 months","0.12 area %, w/w"
same,"Individual related substance (area %, w/w), RRT 1.20","[2]; 25° C./60% RH, 18 months","0.06 area %, w/w"
same,Purity (% area),"[2]; 25° C./60% RH, 18 months",99.7 % area
same,Total related substances,"[2]; 25° C./60% RH, 18 months",0.26%
same,Water content (%),"[2]; 25° C./60% RH, 18 months",6.9%
same,Appearance,"[2]; 25° C./60% RH, 24 months",White
same,Assay (anhydrous w/w %),"[2]; 25° C./60% RH, 24 months",101.6 w/w %
same,Chiral purity (area %),"[2]; 25° C./60% RH, 24 months",100.0 area %
same,"Individual related substance (area %, w/w), RRT 0.46","[2]; 25° C./60% RH, 24 months","0.08 area %, w/w"
same,"Individual related substance (area %, w/w), RRT 0.64","[2]; 25° C./60% RH, 24 months","0.12 area %, w/w"
same,"Individual related substance (area %, w/w), RRT 1.20","[2]; 25° C./60% RH, 24 months","0.07 area %, w/w"
same,Purity (% area),"[2]; 25° C./60% RH, 24 months",99.7 % area
same,Total related substances,"[2]; 25° C./60% RH, 24 months",0.27%
same,Water content (%),"[2]; 25° C./60% RH, 24 months",7.4%
same,XRPD,"[2]; 25° C./60% RH, 24 months",Same
same,Appearance,"[2]; 25° C./60% RH, 36 months",White
same,Assay (anhydrous w/w %),"[2]; 25° C./60% RH, 36 months",101.4 w/w %
same,Chiral purity (area %),"[2]; 25° C./60% RH, 36 months",99.8 area %
same,"Individual related substance (area %, w/w), RRT 0.31","[2]; 25° C./60% RH, 36 months","0.05 area %, w/w"
same,"Individual related substance (area %, w/w), RRT 0.46","[2]; 25° C./60% RH, 36 months","0.08 area %, w/w"
same,"Individual related substance (area %, w/w), RRT 0.64","[2]; 25° C./60% RH, 36 months","0.12 area %, w/w"
same,"Individual related substance (area %, w/w), RRT 1.20","[2]; 25° C./60% RH, 36 months","0.05 area %, w/w"
same,Purity (% area),"[2]; 25° C./60% RH, 36 months",99.7 % area
same,Total related substances,"[2]; 25° C./60% RH, 36 months",0.3%
same,Water content (%),"[2]; 25° C./60% RH, 36 months",7.5%
same,XRPD,"[2]; 25° C./60% RH, 36 months",Same
same,anhydrous assay value,[2]; long-term condition through the 36-month interval,around 101%
same,"changes in assay value, total related substances, physical description, or solid state form (XRPD)",[2]; stored at 25° C./60% RH and 40° C./75% RH,No significant changes
same,Total related substances,"[2]; stored at 25° C./60% RH and 40° C./75% RH, remained constant",around 0.25%
